The subject of test [1] is diabetic fibroblasts (DFs). Nature of the test: LDH release assay (necrotic cell death) in fibroblasts. It is filed as cell-based, rat. Conditions: lipoic acid 500 μM, Nrf2-dependent. The text has this:
(§1) To determine the effect of α-lipoic acid on isolated cells from normal and diabetic rats, primary rat fibroblasts were derived from dorsal skin biopsies performed on four diabetic Coto Kakizaki rats (DFs) and four age-matched (12-14 months) and sex-matched (female) Wistar control rats (CFs). After sterilization in povidine solution, the rat skin was washed in sterile water and rinsed in 70% ethanol in phosphate-buffered saline (PBS). The epidermis and dermis were separated following overnight incubation in 0.25% Trypsin/EDTA at 4° C. Samples were washed, diced and digested for thirty minutes at 37° C. in collagenase type I (250 U/ml) dissolved in Dulbecco's modified Eagle medium (DMEM; Invitrogen) containing penicillin (100 U/ml), 2 mM L-glutamine and 26 mM HEPES. After collagenase treatment, the cells were dislodged, centrifuged and resuspended in medium supplemented with 10% fetal bovine serum. The cells were grown under standard conditions, and the medium was changed every three to four days. Control and diabetic fibroblasts were grown under normo-glycemic conditions (5.5 mM glucose) and used in experiments at passage 3 to 5.
Fibroblasts were seeded at 1×10^4 cells/well on a 96-well plate. […] Quantification of cell viability was assessed using a Cell Counting Kit-8 (Dojindo, Kumamoto, Japan). […]

For test [2], the system named is thiobarbituric acid reactive substances. In words: Aortic content of TBARS (lipid peroxidation). It is filed as in vivo, rat. The settings on record: aorta of LA-treated GK rats. Here is the method: With regard to lipid peroxidation, aortic tissues were homogenized in ice-cold tris-hydrochloric acid/buffer (pH 7.4) and butylated hydroxytoluene (BHT). Homogenates were centrifuged at 3,000×g at 4° C. for 10 min. An aliquot of the supernatant was combined with N-methyl-2-phenylindol (10.3) mmol/l in acetonitrile and methanol in the presence of methane sulfonic acid and BHT and the amount of malondialdehyde and 4-hydroxy-2-nonenal was assessed.

The subject of test [3] is caspase 3/7. Nature of the test: Caspase 3/7 activity in aorta (APO-ONE assay). Conditions: chronic LA treatment, GK rats. The class given is in vivo, rat. Here is the method: For detection of caspase 3-like activity, protein was isolated and caspase activity was detected in resulting supernatant using an APO-ONE homogenous caspase 3/7 assay (Promega). With regard to subcellular fractionation and western blotting, aortic tissue nuclear extracts were prepared and protein (40 μg) was loaded in each well of […] polyacrylamide gel. Separated polypeptide was transferred to nitrocellulose membrane IBio-Rad) and probed with anti NFκB at a 1:2,000 […]. Chemiluminescent detection was performed by an ECL Western Blotting Detection Kit®.

For test [4], the system named is diabetic fibroblasts. Nature of the test: Inflammatory cytokine release by fibroblasts, ELISA. It is filed as cell-based, rat. Conditions: lipoic acid 500 μM, Nrf2-dependent.
Source text: as §1, with “The cells were grown under standard conditions, and the medium was changed every three to four days. Control and diabetic fibroblasts were grown under normo-glycemic conditions (5.5 mM glucose) and used in experiments at passage 3 to 5.” left out
With regard to ELISA assays to determine cytokine expression levels, control and diabetic fibroblasts were seeded on a 6-well plate at 2.5×10^5 cells/well. […] After incubation for 16 hr, supernatants were collected and analyzed for key inflammatory cytokines, including TNF-α, IL-1β, fractalkine and monocyte chemoattractant protein-1 (MCP-1) using commercially available ELISA kits specific for rats and according to the protocols provided by the manufacturers (R&D and Ray Biotech). […]

In test [5] the test system is HEK-499 cells. In words: Viability of cells exposed to cisplatin. It is filed as cell-based. The settings on record: 500 microMolar α-lipoic acid in the media prior to cisplatin at variable doses. The text has this:
Alpha-lipoic acid increased HEK-499 cells, which were engineered to be resistant to chemotherapies and radiotherapies by depleting Raf Kinase inhibitory protein resistance to lethal doses of cisplatin, a chemical used in cancer therapy.

In test [6] the test system is diabetic fibroblasts (DFs). In words: Cell viability after hydrogen peroxide (Cell Counting Kit-8), diabetic fibroblasts. Conditions: diabetic fibroblasts, lipoic acid 500 μM, Nrf2-dependent. The class given is cell-based, rat.
Source text: as §1
Fibroblasts were seeded at 1×10^4 cells/well on a 96-well plate. After a 24 hour incubation period, the cells were exposed to various concentrations of HP in serum-free medium at 37° C. for 2 hours [lactate dehydrogenase (LDH), a marker for necrotic cell death], or for 16 hours (cell viability). Quantification of cell viability was assessed using a Cell Counting Kit-8 (Dojindo, Kumamoto, Japan). The values obtained were normalized to the vehicle-treated cells. To measure the rate of necrotic cell death, an LDH release assay was performed using a CytoTox-ONE Homogeneous Membrane Integrity Assay kit (Promega). Expression of Nrf2 was inhibited by small-interfering RNA (siRNA) oligonucleotides. The sequences were designed and synthesized by Qiagen. The best silencing efficiency was obtained by incubating 2.0×10^5 cells/well in a 6-well plate with complexes formed by 5 nM siRNA (1 μl) and 9 μL of HiPerfect transfection reagent (Qiagen) dissolved in 90 μl medium, according to the manufacturer's instructions. The transfection was achieved by adding 0.9 ml of medium to the seeded cells followed by 100 μl of siRNA/HiPerfect complex. Knock-out efficiency was verified by real-time PCR and Western blot. Twenty-four hours later, 1 ml of fresh medium was added; 48 hr after transfection the cells were exposed to either vehicle or lipoic acid at a concentration of 500 μM.
(Formazan colour is commonly taken as a measure of viable cells.)

The subject of test [7] is aortic vessels. In words: Dihydroethidium / ethidium bromide fluorescence of aortic sections. The class given is in vivo, rat. The settings on record: LA-treated diabetic rats. Here is the method:
Dihydroethidium (DHE), an oxidative fluorescent dye, was used to localize superoxide production in situ. DHE is oxidized on reaction with superoxide to ethidium bromide, which binds to DNA in the nucleus and fluoresces. Arteries were embedded in OCT medium, frozen and cryosectioned. Vascular sections were incubated with DHE at a concentration (10^−6 mol/l) at 37° C. for 30 minutes. DHE images from serial sections were obtained using a Zeiss Axioplan 2000 fluorescence microscope.

Test [8] deals with rat aortic rings. Nature of the test: Acetylcholine-induced endothelium dependent relaxation of aortic rings in organ chamber. The class given is in vivo. Conditions: GK diabetic rats. Here is the method: In the experiments, with regard to the determination of endothelium dependent relaxation (EDR) in the aorta, EDR in response to various concentrations of acetylcholine (Ach) (10^−9 to 10^−6 mol/l) was assessed in norepinephrine (10^−7 mol/l) preconstructed rat aortic rings using an organ chamber bath. The effects of the NAD(P)H oxidase inhibitor apocynin (3×10^−4 mol/l) and the O2^− scavenger Tiron (10 mmol/l) on Ach-induced responses of diabetic arteries were also considered.

Take `O=C(O)CCCCC1CCSS1` (stereo not drawn) [LA, alpha-lipoic acid]: the “LDH release into cell culture media (necrotic cell death) in response to HP” value in test [1] is “reduces cell death”. For the same molecule, the “oxidative stress-mediated damage to lipid (TBARS)” value in test [2] is reported as “partially reversed”. In addition, the “reduction of caspase 3/7 in diabetic arteries” value in test [3] worked out at 48%. In addition, the “release of inflammatory cytokines by diabetic fibroblasts” value in test [4] is on record as “ameliorated”. Also, in test [5], the “protection of cells from lethal doses of cisplatin” value is given as “significantly protected”. Also, the “protection of cell viability from hydrogen peroxide” value in test [6] is reported as “protected”. In addition, the “nuclear EB fluorescence in aortic vessels” value in test [7] is “significantly reduced”. Besides, in test [8] (LA 50 mg/kg i.p. daily for four weeks), the “decline in acetylcholine (Ach)-induced relaxation of rat aorta” value is “ameliorated”. In addition, the “beneficial effect on Ach-induced relaxation after discontinuation” value in test [8] (two weeks after discontinuation of LA) was “not evident”.

(Values after patent US8735443B2, “Method of treating diabetes-related vascular complications” (Kuwait University, priority 2008, dated 2014).)
